According to PubChem BioAssay (NCI):
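Step 1: Grow cells in 96-well plates. Step 2: Expose to compound for 48 hours at 5 concentrations. Step 3: Interpolate endpoints linearly; if unreached, use highest concentration. The concentration for 50% growth inhibition is given as GI50. At the TGI there is no net growth.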

Legend:
Test in all cases: NCI tumour cell line growth inhibition, 48 h
[1] = test system: CAKI-1 renal
[2] = test system: CCRF-CEM leukemia
[3] = test system: LOX IMVI melanoma
[4] = test system: M14 melanoma
[5] = test system: MDA-MB-435
[6] = test system: MOLT-4 leukemia
[7] = test system: OVCAR-5 ovarian
[8] = test system: PC-3 prostate
[9] = test system: SK-MEL-28 melanoma
[10] = test system: SNB-75 CNS

Compound | GI50 [1] [µM] | TGI [1] [µM] | GI50 [2] [µM] | TGI [2] [µM] | GI50 [3] [µM] | TGI [3] [µM] | GI50 [4] [µM] | TGI [4] [µM] | GI50 [5] [µM] | TGI [5] [µM] | GI50 [6] [µM] | TGI [6] [µM] | GI50 [7] [µM] | TGI [7] [µM] | GI50 [8] [µM] | TGI [8] [µM] | GI50 [9] [µM] | TGI [9] [µM] | GI50 [10] [µM] | TGI [10] [µM]
O=C(CN1CCN(c2cc3c(cc2F)c(=O)c(C(=O)O)cn3C2CC2)CC1)Nc1ccc(C(=O)/C=C/c2ccccc2)cc1 | 1.76 | 5.32 | 4.09 | > 100 | 2.32 | > 100 | 5.22 | > 100 | 2.94 | > 100 | 5.13 | > 100 | 5.35 | > 100 | 3.16 | > 100 | 18.8 | > 100 | 3.22 | > 100
CN1CCN(Cc2ccc(NC(=O)c3cncc(C#Cc4cncc5[nH]ncc45)c3)cc2C(F)(F)F)CC1 | 0.79 | 2.6 | 1.25 | 5.07 | 0.171 | 0.689 | 0.157 | 0.706 | 0.556 | 5.33 | 0.773 | 4.44 | 0.601 | 5.96 | 1.14 | 5.68 | 0.208 | 1.96 | 0.793 | 2.51
CCN(Cc1cccc(C)c1)c1ccc(CO)c(Cl)c1 | 1.31 | 14.7 | 15.6 | 39.8 | 13.2 | 26.6 | 14.3 | 29.8 | 15.7 | 32.1 | 18.5 | > 64.3 | 0.245 | 1.04 | 12.6 | 26.1 | 15.1 | 39.5 | 13.1 | 37.5
O=[N+]([O-])C1(CO)COC2(OC1)c1ccccc1-c1ccccc12 |  | > 100 |  | 71 |  | 67.7 |  | > 88.4 |  | > 100 |  | > 85.2 |  | > 100 |  | > 100 |  | > 100 |  | > 100
COc1cc(C2CC(c3cc(Cl)c(C)cc3O)=NN2c2ccc(S(N)(=O)=O)cc2)cc(OC)c1OC (stereo not given) | 2.55 | 16.9 | 4.51 | > 100 | 2.08 | 4.28 | 2.02 | 4.29 | 2.57 | 8.47 | 4.46 | > 100 | 1.87 | 4.28 | 2.27 | 8.94 | 3 | 7.86 | 2.45 | 28.3
CCN(CC)c1ccc(/C=C2/NC(=O)NC2=O)cc1 | 6.19 | > 100 | 9.66 | > 100 | 9.73 | > 100 | 3.3 | 38.9 | 0.42 | 3.53 | 17.6 | > 100 | 10.5 | > 100 | 12.1 | > 100 | 15.9 | > 100 | 4.01 | > 100
